Test results taken from publication PMC10763615, “Identification and engineering of potent cyclic peptides with selective or promiscuous binding through biochemical profiling and bioinformatic data analysis” (RSC Chemical Biology, 2023).
Read-outs that look alike come from different tables or passages of the source. Positions of bridges follow the written chain, without caps; N, C: chain ends. Residues, ends and D or L forms follow the SMILES beside them.

Columns and labels:
Format in all cases: binding
FGF-R4 ECD = target: T1, FGF-R4 ECD (Homo sapiens, UniProt P22455); experiment: single concentration BLI of crude peptides; details: read-out: KD (4)
T1 construct: DNA constructs for the extracellular domain (ECD) of human FGF-; HPC4 (C); made in house; host or cells: HEK 293-6E
T1 sequence (P22455 22-369 limits assumed): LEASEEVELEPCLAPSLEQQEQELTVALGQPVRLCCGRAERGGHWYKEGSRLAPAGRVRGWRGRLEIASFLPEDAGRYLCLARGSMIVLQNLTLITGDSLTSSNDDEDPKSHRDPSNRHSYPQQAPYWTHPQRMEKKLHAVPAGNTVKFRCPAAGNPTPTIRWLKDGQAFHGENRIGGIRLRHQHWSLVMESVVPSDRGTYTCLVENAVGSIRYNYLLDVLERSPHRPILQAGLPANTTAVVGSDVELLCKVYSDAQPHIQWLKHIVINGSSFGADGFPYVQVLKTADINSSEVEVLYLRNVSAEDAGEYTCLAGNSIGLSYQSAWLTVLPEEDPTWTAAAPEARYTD
Method in brief: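 BLI, streptavidin sensors loaded with biotinylated receptor ECD. Single-point: ~1 μM crude peptide, PBS pH7.4/0.05% Tween-20/0.01% BSA; association then dissociation in buffer. KD corrected for UPLC-CAD-determined concentration.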

FGF-R1C ECD = target: T2, FGF-R1C ECD (Homo sapiens, UniProt P11362); experiment: biochemical; set-up: DNA constructs for the extracellular domain (ECD) of human FGF-; HPC4 (C); made in house; host or cells: HEK 293-6E
T2 sequence (P11362 22-376 limits assumed): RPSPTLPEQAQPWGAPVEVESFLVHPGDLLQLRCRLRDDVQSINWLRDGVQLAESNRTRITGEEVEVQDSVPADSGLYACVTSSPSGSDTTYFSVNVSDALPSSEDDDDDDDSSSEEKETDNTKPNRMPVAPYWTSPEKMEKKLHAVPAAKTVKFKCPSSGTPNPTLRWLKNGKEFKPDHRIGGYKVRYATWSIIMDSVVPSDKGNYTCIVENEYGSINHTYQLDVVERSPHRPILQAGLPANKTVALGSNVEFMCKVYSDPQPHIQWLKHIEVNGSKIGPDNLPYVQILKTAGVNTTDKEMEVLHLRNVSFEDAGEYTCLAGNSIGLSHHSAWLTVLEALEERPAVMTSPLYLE
Method in brief: (§1)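 Streptavidin biosensors carrying biotinylated FGF receptor ECD were immersed in peptide (~1 μM for crude single-point runs, a concentration series for purified peptides) and then in peptide-free buffer. KD was obtained by fitting the BLI association and dissociation curves.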

FGF-R3C ECD = target: T3, FGF-R3C ECD (Homo sapiens, UniProt P22607); experiment: biochemical; set-up: DNA constructs for the extracellular domain (ECD) of human FGF-; HPC4 (C); made in house; host or cells: HEK 293-6E
T3 sequence (P22607 23-375 limits assumed): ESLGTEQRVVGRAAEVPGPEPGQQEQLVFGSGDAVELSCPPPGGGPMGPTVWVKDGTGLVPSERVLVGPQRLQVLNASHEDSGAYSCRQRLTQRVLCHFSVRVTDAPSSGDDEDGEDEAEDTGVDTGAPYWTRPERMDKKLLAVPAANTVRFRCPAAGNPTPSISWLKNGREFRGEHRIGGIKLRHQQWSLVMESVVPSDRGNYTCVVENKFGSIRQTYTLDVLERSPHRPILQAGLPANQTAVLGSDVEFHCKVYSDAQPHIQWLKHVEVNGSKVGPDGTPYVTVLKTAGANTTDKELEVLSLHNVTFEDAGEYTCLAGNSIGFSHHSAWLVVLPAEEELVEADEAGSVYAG
Method in brief: as §1

[1] = crude NNK peptides, single concentration BLI (Table S3)
[2] = crude T18 selection 1 (1:1:1) peptides, single concentration BLI (Table S4)

SMILES	Kd (FGF-R4 ECD; [1]) [µM]	Kd (FGF-R1C ECD) [µM]	Kd (FGF-R3C ECD) [µM]	Kd (FGF-R4 ECD; [2]) [µM]
CC[C@H](C)[C@@H]1NC(=O)[C@H](Cc2ccc(O)cc2)NC(=O)[C@H](Cc2c[nH]cn2)NC(=O)[C@@H](NC(=O)[C@H](CCSC)NC(C)=O)CSSC[C@@H](C(=O)NCC(=O)N[C@@H](CO)C(=O)NCC(=O)N[C@@H](CO)C(=O)N[C@@H](CC(=O)O)C(=O)N[C@@H](Cc2ccc(O)cc2)C(=O)N[C@@H](CCCCN)C(=O)N[C@@H](CC(=O)O)C(=O)N[C@@H](CC(=O)O)C(=O)N[C@@H](CC(=O)O)C(=O)N[C@@H](CC(=O)O)C(=O)N[C@@H](CCCCN)C(N)=O)NC(=O)[C@H](CC(C)C)NC(=O)[C@H](Cc2c[nH]c3ccccc23)NC(=O)[C@H](CC(=O)O)NC(=O)[C@H](CO)NC1=O (Ac-MCHYISDWLCGSGSDYKDDDDK-NH2; disulfide 2-10)	> 10	> 10	> 10	–
CC[C@H](C)[C@@H]1NC(=O)[C@H](CO)NC(=O)[C@H]([C@@H](C)CC)NC(=O)[C@H](CC(C)C)NC(=O)[C@@H](NC(=O)[C@H](CCSC)NC(C)=O)CSSC[C@@H](C(=O)NCC(=O)N[C@@H](CO)C(=O)NCC(=O)N[C@@H](CO)C(=O)N[C@@H](CC(=O)O)C(=O)N[C@@H](Cc2ccc(O)cc2)C(=O)N[C@@H](CCCCN)C(=O)N[C@@H](CC(=O)O)C(=O)N[C@@H](CC(=O)O)C(=O)N[C@@H](CC(=O)O)C(=O)N[C@@H](CC(=O)O)C(=O)N[C@@H](CCCCN)C(N)=O)NC(=O)[C@H](Cc2c[nH]cn2)NC(=O)[C@H](CCCCN)NC(=O)[C@H](CC(C)C)NC(=O)[C@H](C(C)C)NC(=O)[C@H](CCCCN)NC(=O)[C@H](Cc2ccc(O)cc2)NC1=O (Ac-MCLISIYKVLKHCGSGSDYKDDDDK-NH2; disulfide 2-13)	> 10	> 10	> 10	–
CC[C@H](C)[C@@H]1NC(=O)[C@@H]2CCCN2C(=O)[C@H](Cc2c[nH]c3ccccc23)NC(=O)[C@H](Cc2ccccc2)NC(=O)[C@@H](NC(=O)[C@H](CCSC)NC(C)=O)CSSC[C@@H](C(=O)NCC(=O)N[C@@H](CO)C(=O)NCC(=O)N[C@@H](CO)C(=O)N[C@@H](CC(=O)O)C(=O)N[C@@H](Cc2ccc(O)cc2)C(=O)N[C@@H](CCCCN)C(=O)N[C@@H](CC(=O)O)C(=O)N[C@@H](CC(=O)O)C(=O)N[C@@H](CC(=O)O)C(=O)N[C@@H](CC(=O)O)C(=O)N[C@@H](CCCCN)C(N)=O)NC(=O)[C@H](C)NC(=O)[C@H](CCSC)NC(=O)[C@H](Cc2ccccc2)NC(=O)[C@H](CCCCN)NC(=O)[C@H](Cc2ccc(O)cc2)NC(=O)[C@H](Cc2c[nH]c3ccccc23)NC1=O (Ac-MCFWPIWYKFMACGSGSDYKDDDDK-NH2; disulfide 2-13)	> 10	> 10	> 10	–
CSCC[C@H](NC(C)=O)C(=O)N[C@H]1CSSC[C@@H](C(=O)NCC(=O)N[C@@H](CO)C(=O)NCC(=O)N[C@@H](CO)C(=O)N[C@@H](CC(=O)O)C(=O)N[C@@H](Cc2ccc(O)cc2)C(=O)N[C@@H](CCCCN)C(=O)N[C@@H](CC(=O)O)C(=O)N[C@@H](CC(=O)O)C(=O)N[C@@H](CC(=O)O)C(=O)N[C@@H](CC(=O)O)C(=O)N[C@@H](CCCCN)C(N)=O)NC(=O)[C@H](Cc2c[nH]c3ccccc23)NC(=O)[C@H](CC(C)C)NC(=O)[C@H](CCCNC(=N)N)NC(=O)[C@H](Cc2ccc(O)cc2)NC(=O)[C@H](CC(C)C)NC(=O)[C@H](Cc2c[nH]c3ccccc23)NC(=O)[C@H](CC(C)C)NC(=O)[C@H](CC(=O)O)NC(=O)[C@H](CCCCN)NC(=O)[C@H](CO)NC(=O)[C@H](Cc2ccc(O)cc2)NC(=O)[C@H](CCCCN)NC(=O)[C@H](Cc2ccc(O)cc2)NC1=O (Ac-MCYKYSKDLWLYRLWCGSGSDYKDDDDK-NH2; disulfide 2-16)	–	0.502	> 10	0.022
CC[C@H](C)[C@@H]1NC(=O)[C@H](CC(N)=O)NC(=O)[C@@H](NC(=O)[C@H](CCSC)NC(C)=O)CSSC[C@@H](C(=O)NCC(=O)N[C@@H](CO)C(=O)NCC(=O)N[C@@H](CO)C(=O)N[C@@H](CC(=O)O)C(=O)N[C@@H](Cc2ccc(O)cc2)C(=O)N[C@@H](CCCCN)C(=O)N[C@@H](CC(=O)O)C(=O)N[C@@H](CC(=O)O)C(=O)N[C@@H](CC(=O)O)C(=O)N[C@@H](CC(=O)O)C(=O)N[C@@H](CCCCN)C(N)=O)NC(=O)[C@H](C(C)C)NC(=O)[C@H](CO)NC(=O)[C@H](CC(C)C)NC(=O)[C@H]([C@@H](C)CC)NC(=O)[C@H](CCCCN)NC(=O)[C@H](Cc2ccc(O)cc2)NC(=O)[C@H](CC(C)C)NC(=O)[C@H](CC(C)C)NC1=O (Ac-MCNILLYKILSVCGSGSDYKDDDDK-NH2; disulfide 2-13)	0.105	> 10	> 10	–
CSCC[C@H](NC(C)=O)C(=O)N[C@H]1CSSC[C@@H](C(=O)NCC(=O)N[C@@H](CO)C(=O)NCC(=O)N[C@@H](CO)C(=O)N[C@@H](CC(=O)O)C(=O)N[C@@H](Cc2ccc(O)cc2)C(=O)N[C@@H](CCCCN)C(=O)N[C@@H](CC(=O)O)C(=O)N[C@@H](CC(=O)O)C(=O)N[C@@H](CC(=O)O)C(=O)N[C@@H](CC(=O)O)C(=O)N[C@@H](CCCCN)C(N)=O)NC(=O)[C@H](CCC(N)=O)NC(=O)[C@H](Cc2c[nH]cn2)NC(=O)[C@H](Cc2c[nH]c3ccccc23)NC(=O)[C@H](CC(C)C)NC(=O)[C@H](C)NC(=O)[C@H](CCC(=O)O)NC(=O)[C@H](Cc2ccc(O)cc2)NC(=O)[C@@H]2CCCN2C(=O)[C@H](Cc2c[nH]cn2)NC(=O)[C@H](CCCNC(=N)N)NC(=O)[C@H]([C@@H](C)O)NC(=O)[C@H](Cc2ccc(O)cc2)NC1=O (Ac-MCYTRHPYEALWHQCGSGSDYKDDDDK-NH2; disulfide 2-15)	–	> 10	> 10	> 10
CC[C@H](C)[C@@H]1NC(=O)[C@@H](NC(=O)[C@H](CCSC)NC(C)=O)CSSC[C@@H](C(=O)NCC(=O)N[C@@H](CO)C(=O)NCC(=O)N[C@@H](CO)C(=O)N[C@@H](CC(=O)O)C(=O)N[C@@H](Cc2ccc(O)cc2)C(=O)N[C@@H](CCCCN)C(=O)N[C@@H](CC(=O)O)C(=O)N[C@@H](CC(=O)O)C(=O)N[C@@H](CC(=O)O)C(=O)N[C@@H](CC(=O)O)C(=O)N[C@@H](CCCCN)C(N)=O)NC(=O)[C@H](Cc2c[nH]cn2)NC(=O)[C@H](CO)NC(=O)[C@H]([C@@H](C)CC)NC(=O)[C@H](CC(C)C)NC(=O)[C@H](Cc2ccc(O)cc2)NC(=O)[C@H](Cc2ccc(O)cc2)NC(=O)[C@H](Cc2ccccc2)NC(=O)[C@H](CC(C)C)NC(=O)[C@H](Cc2ccc(O)cc2)NC(=O)[C@H](CCCNC(=N)N)NC1=O (Ac-MCIRYLFYYLISHCGSGSDYKDDDDK-NH2; disulfide 2-14)	–	> 10	> 10	0.002
CSCC[C@H](NC(C)=O)C(=O)N[C@H]1CSSC[C@@H](C(=O)NCC(=O)N[C@@H](CO)C(=O)NCC(=O)N[C@@H](CO)C(=O)N[C@@H](CC(=O)O)C(=O)N[C@@H](Cc2ccc(O)cc2)C(=O)N[C@@H](CCCCN)C(=O)N[C@@H](CC(=O)O)C(=O)N[C@@H](CC(=O)O)C(=O)N[C@@H](CC(=O)O)C(=O)N[C@@H](CC(=O)O)C(=O)N[C@@H](CCCCN)C(N)=O)NC(=O)[C@@H]2CCCN2C(=O)[C@H](CCC(N)=O)NC(=O)[C@H](Cc2c[nH]c3ccccc23)NC(=O)[C@H](CCC(=O)O)NC(=O)[C@H](CCC(=O)O)NC(=O)[C@H]([C@@H](C)O)NC(=O)[C@H](Cc2c[nH]c3ccccc23)NC(=O)[C@H](Cc2ccccc2)NC(=O)[C@H](CCCNC(=N)N)NC(=O)[C@H]([C@@H](C)O)NC(=O)[C@H](Cc2ccc(O)cc2)NC1=O (Ac-MCYTRFWTEEWQPCGSGSDYKDDDDK-NH2; disulfide 2-14)	–	> 10	> 10	> 10
